Experimental data published in ChEMBL document CHEMBL3414547, “Recent advances of chroman-4-one derivatives: synthetic approaches and bioactivities” (Eur J Med Chem, 2015).
pIC50: −log10 of the molar value. Values after ≈ are worked out from the molar mass of the structure shown.

Columns and labels:
Nannizzia gypsea [1] = assay: Antifungal activity against Microsporum gypseum; assay type: functional
Candida albicans [2] = assay: Antifungal activity against Candida albicans; assay type: functional
Aspergillus niger [3] = assay: Antifungal activity against Aspergillus niger; assay type: functional
Staphylococcus aureus [4] = assay: Antibacterial activity against Staphylococcus aureus; assay type: functional
MDA-MB-231 [5] = assay: Cytotoxicity against human MDA-MB-231 cells by MTT assay; assay type: functional, cell-based
KB = assay: Cytotoxicity against human KB cells by MTT assay; assay type: functional, cell-based
SK-N-MC [6] = assay: Cytotoxicity against human SK-N-MC cells by MTT assay; assay type: functional, cell-based
MCF7 = assay: Cytotoxicity against human MCF7 cells after 72 hrs by MTT assay; assay type: functional, cell-based; conditions: MCF7, 72 h
T47D = assay: Cytotoxicity against human T47D cells after 72 hrs by MTT assay; assay type: functional, cell-based
MDA-MB-231 [7] = assay: Cytotoxicity against human MDA-MB-231 cells after 72 hrs by MTT assay; assay type: functional, cell-based; conditions: MDA-MB-231, 72 h
K562 = assay: Cytotoxicity against human K562 cells after 24 hrs by MTT assay; assay type: functional, cell-based; conditions: K562, 24 h
MDA-MB-231 [8] = assay: Cytotoxicity against human MDA-MB-231 cells after 24 hrs by MTT assay; assay type: functional, cell-based; conditions: MDA-MB-231, 24 h
SK-N-MC [9] = assay: Cytotoxicity against human SK-N-MC cells after 24 hrs by MTT assay; assay type: functional, cell-based
Staphylococcus aureus [10] = assay: Antibacterial activity against methicillin-resistant Staphylococcus aureus 252; assay type: functional
Candida albicans [11] = assay: Antifungal activity against Candida albicans PTCC 5027 after 24 to 48 hrs by agar dilution method; assay type: functional
Saccharomyces cerevisiae [12] = assay: Antifungal activity against Saccharomyces cerevisiae PTCC 5177 after 24 to 48 hrs by agar dilution method; assay type: functional
Aspergillus niger [13] = assay: Antifungal activity against Aspergillus niger PTCC 5012 after 72 hrs by agar dilution method; assay type: functional; conditions: PTCC 5012, 72 h
Nannizzia gypsea [14] = assay: Antifungal activity against Microsporum gypseum PTCC 5070 after 168 hrs by agar dilution method; assay type: functional; conditions: PTCC 5070, 168 h
Saccharomyces cerevisiae [15] = assay: Antifungal activity against Saccharomyces cerevisiae; assay type: functional
Aspergillus niger [16] = assay: Ratio of fluconazole MIC to compound MIC for Aspergillus niger; assay type: functional
Nannizzia gypsea [17] = assay: Ratio of fluconazole MIC to compound MIC for Microsporum gypseum; assay type: functional
Candida albicans [18] = assay: Ratio of fluconazole MIC to compound MIC for Candida albicans; assay type: functional
Saccharomyces cerevisiae [19] = assay: Ratio of fluconazole MIC to compound MIC for Saccharomyces cerevisiae; assay type: functional
Mycolicibacterium phlei = assay: Antimycobacterial activity against Mycobacterium phlei; assay type: functional
Mycolicibacterium aurum = assay: Antimycobacterial activity against Mycobacterium aurum; assay type: functional
[20] = test system: Mycolicibacterium fortuitum; assay: Antimycobacterial activity against Mycobacterium fortuitum; assay type: functional
[21] = test system: Mycolicibacterium smegmatis; assay: Antimycobacterial activity against Mycobacterium smegmatis; assay type: functional
Acetylcholinesterase = Acetylcholinesterase (Homo sapiens, UniProt P22303); assay: Inhibition of AChE (unknown origin)
Acetylcholinesterase, sequence (P22303 whole entry): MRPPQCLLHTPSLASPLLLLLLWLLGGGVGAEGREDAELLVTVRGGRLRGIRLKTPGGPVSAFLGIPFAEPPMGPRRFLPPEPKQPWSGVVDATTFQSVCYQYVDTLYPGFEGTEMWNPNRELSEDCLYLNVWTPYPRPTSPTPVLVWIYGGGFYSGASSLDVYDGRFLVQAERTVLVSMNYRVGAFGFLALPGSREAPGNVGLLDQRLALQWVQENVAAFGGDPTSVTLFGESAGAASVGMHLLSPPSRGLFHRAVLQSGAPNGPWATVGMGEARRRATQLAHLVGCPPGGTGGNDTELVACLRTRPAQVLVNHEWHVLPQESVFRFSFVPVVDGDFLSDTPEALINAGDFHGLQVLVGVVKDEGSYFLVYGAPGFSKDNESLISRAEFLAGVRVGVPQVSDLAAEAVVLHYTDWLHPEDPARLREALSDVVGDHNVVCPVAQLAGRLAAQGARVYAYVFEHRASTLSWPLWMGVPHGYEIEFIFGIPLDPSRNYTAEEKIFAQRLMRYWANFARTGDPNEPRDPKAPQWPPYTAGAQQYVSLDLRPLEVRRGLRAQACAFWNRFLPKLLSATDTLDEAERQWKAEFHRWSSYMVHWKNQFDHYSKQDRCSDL

HUVEC = assay: Cytotoxicity against HUVEC by MTT assay; assay type: functional, cell-based; conditions: Homo sapiens

O=[N+]([O-])O.c1ccc(CO/N=C2/c3ccccc3OCC2n2ccnc2)cc1 (stereo not drawn) gave an MIC (Nannizzia gypsea [1]) of 2 µg/mL.
O=[N+]([O-])O.c1ccc(CO/N=C2\c3ccccc3OCC2n2ccnc2)cc1 (stereo not drawn) showed an MIC (Nannizzia gypsea [1]) of 2 µg/mL.
Clc1ccc(CO/N=C2\c3ccccc3OCC2n2ccnc2)cc1Cl.O=[N+]([O-])O (stereo not drawn) showed an MIC (Candida albicans [2]) of at most 1 µg/mL and an MIC (Aspergillus niger [3]) of at most 1 µg/mL.
COc1cc(C2CC(=O)c3c(cc(O)c(C/C=C(\C)CCC=C(C)C)c3O)O2)cc(OC)c1O (stereo not drawn) was tested, and the MIC (Staphylococcus aureus [4]) was 4 µg/mL (≈ 8.54 µM).
Work on COc1ccc2c(c1)OC/C(=C\c1cc(Cl)c(OC)c(OC)c1)C2=O yielded an IC50 (MDA-MB-231 [5]) of 7.56 µg/mL (≈ 21 µM), an IC50 (KB) of 7.56 µg/mL (≈ 21 µM) and an IC50 (SK-N-MC [6]) of 7.56 µg/mL (≈ 21 µM).
O=C1/C(=C/c2ccccc2)COc2cc3c(cc21)OCO3 showed an IC50 (MCF7) of at most 9.3 µg/mL, an IC50 (T47D) of at most 9.3 µg/mL and an IC50 (MDA-MB-231 [7]) of at most 9.3 µg/mL.
In the case of COc1cc(/C=C2\COc3cc(O)ccc3C2=O)cc(Br)c1O, the IC50 (K562) was at most 3.86 µg/mL, the IC50 (MDA-MB-231 [8]) was at most 3.86 µg/mL and the IC50 (SK-N-MC [9]) was at most 3.86 µg/mL.
In the case of CC(C)=CCC/C(C)=C/Cc1c(C2CC(=O)c3c(O)cc(O)cc3O2)ccc(O)c1O (stereo not drawn), the MIC (Staphylococcus aureus [4]) was 16 µg/mL (≈ 37.7 µM).
C=C(C)C(C)c1cc(C2CC(=O)c3c(O)cc(O)cc3O2)c(OC)cc1O (stereo not drawn) showed an MIC (Staphylococcus aureus [10]) of 16 µg/mL (≈ 43.2 µM).
C=C(C)C(C)c1cc(C2CC(=O)c3c(O)cc(O)cc3O2)cc(OC)c1O (stereo not drawn) gave an MIC (Staphylococcus aureus [10]) of 16 µg/mL (≈ 43.2 µM).
With CC1Oc2ccccc2/C(=N/Nc2ccccc2)C1n1ccnc1 (stereo not drawn) the MIC (Candida albicans [11]) was 8 µg/mL (≈ 25.1 µM), the MIC (Saccharomyces cerevisiae [12]) was 8 µg/mL (≈ 25.1 µM) and the MIC (Aspergillus niger [13]) was 8 µg/mL (≈ 25.1 µM). For the same compound, the MIC (Nannizzia gypsea [14]) was 8 µg/mL (≈ 25.1 µM).
Compound Clc1ccc(CO/N=C2\c3ccc(Cl)cc3OCC2n2cncn2)c(Cl)c1 (stereo not drawn) has an MIC (Saccharomyces cerevisiae [15]) of 4 µg/mL (≈ 9.44 µM).
Clc1ccc(CO/N=C2\c3ccccc3OCC2n2cncn2)cc1Cl.O=[N+]([O-])O (stereo not drawn) was tested, and the MIC (Aspergillus niger [3]) was 1 µg/mL, the MIC (Nannizzia gypsea [1]) was 1 µg/mL and the Ratio (Aspergillus niger [16]) was 16. The Ratio (Nannizzia gypsea [17]) was 16.
C[C@@H]1Oc2cc(Cl)ccc2/C(=N\OCc2ccccc2)[C@H]1n1ccnc1.O=[N+]([O-])O gave an MIC (Candida albicans [2]) of 0.25 µg/mL, an MIC (Nannizzia gypsea [1]) of 1 µg/mL and an MIC (Saccharomyces cerevisiae [15]) of 0.5 µg/mL. The Ratio (Candida albicans [18]) was 32 and the Ratio (Saccharomyces cerevisiae [19]) was 32.
Work on C[C@@H]1Oc2ccccc2/C(=N\OCc2ccc(F)cc2)[C@H]1n1ccnc1.O=[N+]([O-])O yielded an MIC (Nannizzia gypsea [1]) of 1 µg/mL.
For COc1ccc(CC2COc3c(ccc4c3OCO4)C2=O)cc1 (stereo not drawn), the MIC (Mycolicibacterium phlei) was 16 µg/mL (≈ 51.2 µM), the MIC (Mycolicibacterium aurum) was 32 µg/mL (≈ 102 µM) and the MIC [20] was 128 µg/mL (≈ 410 µM). It also gave an MIC [21] of 256 µg/mL (≈ 820 µM).
Nc1oc2ccccc2c(=O)c1/C=C1\COc2ccccc2C1=O showed a pIC50 (Acetylcholinesterase) of 6.57.
In the case of COc1ccccc1/C=C1\COc2ccccc2C1=O, the pIC50 (HUVEC) was 4.72.
